Data as given in patent US11827624B2, “Covalent immune recruiter compounds for immune cell recognition and associated uses” (McMaster University, priority 2020, dated 2023).

Tested on: PSMA+HEK cells
Assay: Two-color flow cytometry ADCP (CD64) assay with mAb on PSMA+HEK cells
Assay type: cell-based, human
Source text: ADCP flow cytometry experiments were run on a BD LSRII Flow Cytometer. The human IgG isotype control used was purchased from Jackson ImmunoResearch (009-000-003). The human IgG1 monoclonal anti-DNP antibody (mAb) was purchased from acrobiosystems (DNP-M2). PSMA expression was confirmed with an anti-PSMA antibody Alexa 647 conjugate (Novus Biologicals, Catalog #FAB4234R). For PSMA competition controls, PMPA was purchased from Sigma (SML1612). Hek-293T (PSMA+/−) cell lines were generously given by Dr. Cyril Barinka (Institute of Biotechnology CAS, Czech Republic). U937 cells were generously given by Dr. John Valliant (McMaster University, Canada). LNCaP cells were generously given by Dr. Karen Mossman (McMaster University, Canada). IFN-γ was purchased from Fischer Scientific (PHC4031). Ultra low IgG FBS was purchased from Fischer Scientific (A3381901). RPMI-1640 was purchased as a powder from Fischer Scientific (31800089) and resuspended. DMEM was purchased as a powder from Fischer Scientific (12800082) and resuspended. […]
For preparation of effector monocytes, 24 hours prior to inducing phagocytosis U937 monocytes were seeded at 500,000 cells/mL and activated with IFN-γ ([…]). After incubation, these cells were then counted and washed twice with serum free assay media (neat RPMI). […] These cells were then counted and washed twice with serum free assay media (neat RPMI). […]

For `O=C(O)CC[C@H](NC(=O)N[C@@H](CCCCNC(=O)NCCOCCOCCOCCOCCOCCOCCOCCOC(=O)n1cnc(CCNC(=O)CNc2ccc([N+](=O)[O-])cc2[N+](=O)[O-])c1)C(=O)O)C(=O)O` [CIR 3], which “CD64 based target immune recognition (phagocytosis)” value is on record?
The value was “substantial functional enhancement relative to ARM 11 across all antibody concentrations tested”.
